# Reference: patent publication US20230278972A1, “SUBSTITUTED HALOALKYL SULFONANILIDE HERBICIDES” (FMC Corporation, priority 2020, published 2023)
# How the values were obtained:
# Type in all cases: in vivo
# [1] = test system: Foxtail, Giant (giant foxtail, Setaria faberi); test: Test A postemergence, Foxtail, Giant; conditions: Postemergence, 0 to 100 scale (0 no effect, 100 complete control); for Plant response rating, Foxtail, Giant: 125 g ai/ha, visual injury approx. 10 days; for Foxtail, Giant plant response rating: 500 g ai/ha, visual injury vs untreated controls after approx. 10 days
# Procedure, shortened: (§1)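 Seeds are sown in loam mixed with sand and sprayed on the soil surface right after planting for the preemergence test. Postemergence pots are sprayed once seedlings reach 2 to 10 cm at the one- to two-leaf stage. The same surfactant-containing, non-phytotoxic solvent formulation serves both.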
# [2] = test system: barnyardgrass (Echinochloa crus-galli); test: Test A postemergence, barnyardgrass; conditions: Postemergence, 0 to 100 scale (0 no effect, 100 complete control); for Plant response rating, Barnyardgrass: 125 g ai/ha, visual injury approx. 10 days; for Barnyardgrass plant response rating: 500 g ai/ha, visual injury vs untreated controls after approx. 10 days
# Procedure, shortened: (§2)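 After sowing into a sand-amended loam, pots for the preemergence test were treated by spraying directly onto soil. In parallel, seedlings at the one- to two-leaf stage and 2 to 10 cm tall were treated postemergence with the identical surfactant-containing formulation.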
# [3] = test system: Foxtail, Giant (giant foxtail, Setaria faberi); test: Test A preemergence, Foxtail, Giant; conditions: Preemergence; for Foxtail, Giant plant response rating: 125 g ai/ha, visual injury on 0 to 100 scale (0 no effect, 100 complete control), approximately 10 days; for Plant response rating, Foxtail, Giant: 500 g ai/ha, 0 to 100 scale (0 no effect, 100 complete control)
# Procedure, shortened: as §1
# [4] = test system: ragweed (common ragweed, Ambrosia artemisiifolia); test: Test A postemergence, ragweed; conditions: Postemergence, 0 to 100 scale (0 no effect, 100 complete control); for Plant response rating, Ragweed: 125 g ai/ha, visual injury approx. 10 days; for Ragweed plant response rating: 500 g ai/ha, visual injury vs untreated controls after approx. 10 days
# Procedure, shortened: as §1
# [5] = test system: wheat (Triticum aestivum); test: Test A postemergence, wheat; conditions: Postemergence, 0 to 100 scale (0 no effect, 100 complete control); for Plant response rating, Wheat: 125 g ai/ha, visual injury approx. 10 days; for Wheat plant response rating: 500 g ai/ha, visual injury vs untreated controls after approx. 10 days
# Procedure, shortened: as §2
# [6] = test system: kochia (Bassia scoparia); test: Test A preemergence, kochia; conditions: Preemergence; for Kochia plant response rating: 125 g ai/ha, visual injury on 0 to 100 scale (0 no effect, 100 complete control), approximately 10 days; for Plant response rating, Kochia: 500 g ai/ha, 0 to 100 scale (0 no effect, 100 complete control)
# Procedure, shortened: as §1
# [7] = test system: pigweed (Amaranthus retroflexus); test: Test A postemergence, pigweed; conditions: Postemergence, 0 to 100 scale (0 no effect, 100 complete control); for Plant response rating, Pigweed: 125 g ai/ha, visual injury approx. 10 days; for Pigweed plant response rating: 500 g ai/ha, visual injury vs untreated controls after approx. 10 days
# Procedure, shortened: as §1
# [8] = test system: pigweed (Amaranthus retroflexus); test: Test A preemergence, pigweed; conditions: for Pigweed plant response rating: 125 g ai/ha, visual injury on 0 to 100 scale (0 no effect, 100 complete control), approximately 10 days; for Plant response rating, Pigweed: 500 g ai/ha, 0 to 100 scale (0 no effect, 100 complete control)
# Procedure, shortened: as §2
# [9] = test system: corn (Zea mays); test: Test A postemergence, corn; conditions: Postemergence, 0 to 100 scale (0 no effect, 100 complete control); for Plant response rating, Corn: 125 g ai/ha, visual injury approx. 10 days; for Corn plant response rating: 500 g ai/ha, visual injury vs untreated controls after approx. 10 days
# Procedure, shortened: as §1
# [10] = test system: kochia (Bassia scoparia); test: Test A postemergence, kochia; conditions: Postemergence, 0 to 100 scale (0 no effect, 100 complete control); for Plant response rating, Kochia: 125 g ai/ha, visual injury approx. 10 days; for Kochia plant response rating: 500 g ai/ha, visual injury vs untreated controls after approx. 10 days
# Procedure, shortened: as §1
# [11] = test system: galium (catchweed bedstraw, Galium aparine); test: Test A postemergence, galium; conditions: Postemergence, 0 to 100 scale (0 no effect, 100 complete control); for Plant response rating, Galium: 125 g ai/ha, visual injury approx. 10 days; for Galium plant response rating: 500 g ai/ha, visual injury vs untreated controls after approx. 10 days
# Procedure, shortened: as §2
# [12] = test system: Ryegrass, Italian (Italian ryegrass, Lolium multiflorum); test: Test A preemergence, Ryegrass, Italian; conditions: Preemergence; for Ryegrass, Italian plant response rating: 125 g ai/ha, visual injury on 0 to 100 scale (0 no effect, 100 complete control), approximately 10 days; for Plant response rating, Ryegrass, Italian: 500 g ai/ha, 0 to 100 scale (0 no effect, 100 complete control)
# Procedure, shortened: as §1
# [13] = test system: ragweed (common ragweed, Ambrosia artemisiifolia); test: Test A preemergence, ragweed; conditions: Preemergence; for Ragweed plant response rating: 125 g ai/ha, visual injury on 0 to 100 scale (0 no effect, 100 complete control), approximately 10 days; for Plant response rating, Ragweed: 500 g ai/ha, 0 to 100 scale (0 no effect, 100 complete control)
# Procedure, shortened: as §1
# [14] = test system: barnyardgrass (Echinochloa crus-galli); test: Test A preemergence, barnyardgrass; conditions: Preemergence; for Barnyardgrass plant response rating: 125 g ai/ha, visual injury on 0 to 100 scale (0 no effect, 100 complete control), approximately 10 days; for Plant response rating, Barnyardgrass: 500 g ai/ha, 0 to 100 scale (0 no effect, 100 complete control)
# Procedure, shortened: as §1
# [15] = test system: Ryegrass, Italian (Italian ryegrass, Lolium multiflorum); test: Test A postemergence, Ryegrass, Italian; conditions: Postemergence, 0 to 100 scale (0 no effect, 100 complete control); for Plant response rating, Ryegrass, Italian: 125 g ai/ha, visual injury approx. 10 days; for Ryegrass, Italian plant response rating: 500 g ai/ha, visual injury vs untreated controls after approx. 10 days
# Procedure, shortened: as §1
# [16] = test system: blackgrass (Alopecurus myosuroides); test: Test A postemergence, blackgrass; conditions: Postemergence, 0 to 100 scale (0 no effect, 100 complete control); for Plant response rating, Blackgrass: 125 g ai/ha, visual injury approx. 10 days; for Blackgrass plant response rating: 500 g ai/ha, visual injury vs untreated controls after approx. 10 days
# Procedure, shortened: as §1
Structure (SMILES),"Plant response rating, Foxtail, Giant [1]","Foxtail, Giant plant response rating [1]","Plant response rating, Barnyardgrass [2]",Barnyardgrass plant response rating [2],"Foxtail, Giant plant response rating [3]","Plant response rating, Foxtail, Giant [3]","Plant response rating, Ragweed [4]",Ragweed plant response rating [4],"Plant response rating, Wheat [5]",Wheat plant response rating [5],Kochia plant response rating [6],"Plant response rating, Kochia [6]","Plant response rating, Pigweed [7]",Pigweed plant response rating [7],Pigweed plant response rating [8],"Plant response rating, Pigweed [8]","Plant response rating, Corn [9]",Corn plant response rating [9],"Plant response rating, Kochia [10]",Kochia plant response rating [10],further results
COCC1(COC)CC(c2cc(NS(=O)(=O)C(F)(F)F)c(C)cc2C)=NO1 [Compound 104],20,70,80,90,90,100,70,90,20,60,0,50,40,80,70,90,30,80,30,40,"Plant response rating, Galium [11]: 90; Galium plant response rating [11]: 90; Ryegrass, Italian plant response rating [12]: 50; Plant response rating, Ryegrass, Italian [12]: 100; Ragweed plant response rating [13]: 30; Plant response rating, Ragweed [13]: 60; Barnyardgrass plant response rating [14]: 90; Plant response rating, Barnyardgrass [14]: 100; Plant response rating, Ryegrass, Italian [15]: 10; Ryegrass, Italian plant response rating [15]: 40; Plant response rating, Blackgrass [16]: 0; Blackgrass plant response rating [16]: 20"
Cc1cc(C)c(C(=O)N(C)CC2CC2)cc1NS(=O)(=O)C(F)(F)F [Compound 107],10,50,70,90,60,100,70,90,0,40,0,50,50,60,80,90,0,80,20,40,"Plant response rating, Galium [11]: 90; Galium plant response rating [11]: 90; Ryegrass, Italian plant response rating [12]: 60; Plant response rating, Ryegrass, Italian [12]: 90; Ragweed plant response rating [13]: 50; Plant response rating, Ragweed [13]: 80; Barnyardgrass plant response rating [14]: 90; Plant response rating, Barnyardgrass [14]: 100; Plant response rating, Ryegrass, Italian [15]: 0; Ryegrass, Italian plant response rating [15]: 30; Plant response rating, Blackgrass [16]: 0; Blackgrass plant response rating [16]: 30"
Cc1c(NS(=O)(=O)C(F)(F)F)cc(C(=O)N2CCC(F)CC2)c(C)c1F [Compound 109],0,40,0,70,100,100,70,80,30,70,90,100,50,80,100,100,0,40,10,40,"Plant response rating, Galium [11]: 80; Galium plant response rating [11]: 90; Ryegrass, Italian plant response rating [12]: 70; Plant response rating, Ryegrass, Italian [12]: 80; Ragweed plant response rating [13]: 90; Plant response rating, Ragweed [13]: 90; Barnyardgrass plant response rating [14]: 90; Plant response rating, Barnyardgrass [14]: 100; Plant response rating, Ryegrass, Italian [15]: 40; Ryegrass, Italian plant response rating [15]: 60; Plant response rating, Blackgrass [16]: 10; Blackgrass plant response rating [16]: 10"
